Measured values from PubChem BioAssay AID330 (DTP/NCI, 2004).
“And” between values parts separate entries of the source, which are not always exact repeats. Equal entries are not always repeated. Toxic doses and inconclusive results are not listed. Rule for the calls: active = survival T/C of 150% or more; inactive = T/C below 125% in these data.

Tested on: P388 leukemia ip, CD2F1 mice, survival T/C
Assay: NCI In Vivo Anticancer Drug Screen. Data for tumor model P388 Leukemia (intraperitoneal) in CD2F1 (CDF1) mice
Settings: endpoint: median survival time, higher = longer survival
Summary of the method: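 Mice carrying the transplanted tumor received test compound or vehicle. Survival was recorded in each group, and the value is the treated-group measurement divided by that of the vehicle-treated control group.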

[1] = dose: 12.5 mg/kg/injection, schedule: Q01DX009 (ip), vehicle: Klucel (hydroxypropylcellulose) (HPC)
[2] = dose: 25.0 mg/kg/injection, schedule: Q01DX009 (ip), vehicle: Klucel (hydroxypropylcellulose) (HPC)
[3] = dose: 50.0 mg/kg/injection, schedule: Q01DX009 (ip), vehicle: Klucel (hydroxypropylcellulose) (HPC)
[4] = dose: 60.0 mg/kg/injection, schedule: Q01DX005 (ip), vehicle: saline with Tween-80
[5] = dose: 120.0 mg/kg/injection, schedule: Q01DX005 (ip), vehicle: saline with Tween-80
[6] = dose: 240.0 mg/kg/injection, schedule: Q01DX005 (ip), vehicle: saline with Tween-80
[7] = dose: 25.0 mg/kg/injection, schedule: Q01DX009 (ip), vehicle: saline with Tween-80
[8] = dose: 50.0 mg/kg/injection, schedule: Q01DX009 (ip), vehicle: saline with Tween-80
[9] = dose: 100.0 mg/kg/injection, schedule: Q01DX009 (ip), vehicle: saline with Tween-80
[10] = dose: 100.0 mg/kg/injection, schedule: Q04DX002 (ip), vehicle: saline
[11] = dose: 200.0 mg/kg/injection, schedule: Q04DX002 (ip), vehicle: saline
[12] = dose: 400.0 mg/kg/injection, schedule: Q04DX002 (ip), vehicle: saline
[13] = dose: 50.0 mg/kg/injection, schedule: Q01DX005 (ip), vehicle: saline with Tween-80
[14] = dose: 200.0 mg/kg/injection, schedule: Q01DX005 (ip), vehicle: saline with Tween-80
[15] = dose: 100.0 mg/kg/injection, schedule: Q01DX005 (ip), vehicle: saline with Tween-80

Measured: T/C

O=C(C=C(C(F)(F)F)C(F)(F)F)c1ccc([N+](=O)[O-])cc1
inactive: dose: 3.13 mg/kg/injection, schedule: Q04DX003 (ip), vehicle: other 100 % of control | dose: 6.25 mg/kg/injection, schedule: Q04DX003 (ip), vehicle: other 109 % of control | dose: 12.5 mg/kg/injection, schedule: Q04DX003 (ip), vehicle: other 118 % of control

CNS(=O)(=O)c1c([N+](=O)[O-])ncn1C
inactive: [1] 109 % of control | [2] 109 % of control and 115 % of control | [3] 113 % of control | dose: 100.0 mg/kg/injection, schedule: Q01DX009 (ip), vehicle: Klucel (hydroxypropylcellulose) (HPC) 123 % of control

CCCCCC(CN(C)C)C(=O)/C=C/c1ccccc1 (stereo not drawn)
inactive: dose: 12.5 mg/kg/injection, schedule: Q01DX009 (ip), vehicle: saline 102 % of control | dose: 25.0 mg/kg/injection, schedule: Q01DX009 (ip), vehicle: saline 94 % of control | dose: 50.0 mg/kg/injection, schedule: Q01DX009 (ip), vehicle: saline 104 % of control | dose: 100.0 mg/kg/injection, schedule: Q01DX009 (ip), vehicle: saline 105 % of control

O=C(CBr)c1cc2c(cc1I)OCO2
inactive: dose: 6.25 mg/kg/injection, schedule: Q01DX001 (ip), vehicle: saline with Tween-80 104 % of control | dose: 12.5 mg/kg/injection, schedule: Q01DX001 (ip), vehicle: saline with Tween-80 105 % of control | dose: 25.0 mg/kg/injection, schedule: Q01DX001 (ip), vehicle: saline with Tween-80 99 % of control and 101 % of control | dose: 100.0 mg/kg/injection, schedule: Q01DX001 (ip), vehicle: saline with Tween-80 100 % of control

CC(C)c1cc(C(=O)[O-])c(O)c(C(C)C)c1.CC(C)c1cc(C(=O)[O-])c(O)c(C(C)C)c1.CC1OC(O[C@H]2/C=C/C=C/C=C/C=C/C=C/C=C/C=C/C(C)[C@@H](O)C(C)C(C)OC(=O)C[C@H](O)C[C@H](O)CC[C@@H](O)[C@H](O)C[C@H](O)C[C@]3(O)CC(O)[C@@H](C(=O)O)[C@H](C2)O3)C(O)C(N)C1O.[Cu+2] (stereo partly drawn)
inactive: dose: 12.5 mg/kg/injection, schedule: Q04DX002 (ip), vehicle: saline with Tween-80 103 % of control | dose: 25.0 mg/kg/injection, schedule: Q04DX002 (ip), vehicle: saline with Tween-80 97 % of control | dose: 50.0 mg/kg/injection, schedule: Q04DX002 (ip), vehicle: saline with Tween-80 91 % of control

COc1cc2c(cc1OC)C(c1c(Cl)cccc1Cl)=NCC2
inactive: dose: 50.0 mg/kg/injection, schedule: Q01DX005 (ip), vehicle: Klucel (hydroxypropylcellulose) (HPC) 96 % of control | dose: 100.0 mg/kg/injection, schedule: Q01DX005 (ip), vehicle: Klucel (hydroxypropylcellulose) (HPC) 105 % of control | dose: 200.0 mg/kg/injection, schedule: Q01DX005 (ip), vehicle: Klucel (hydroxypropylcellulose) (HPC) 110 % of control

O=C(/N=C1\N=Nc2nc(C(C(=O)c3cccc([N+](=O)[O-])c3Cl)c3nc4n(c3O)/C(=N/C(=O)Nc3ccc(Cl)cc3)N=N4)c(O)n21)Nc1ccc(Cl)cc1 (stereo not drawn)
inactive: [4] 99 % of control | [5] 100 % of control | [6] 97 % of control

O=C(Nc1cccc(C(F)(F)F)c1)C12CC3CC(CC(C3)C1)C2
inactive: dose: 6.25 mg/kg/injection, schedule: Q01DX009 (ip), vehicle: saline with Tween-80 98 % of control | dose: 12.5 mg/kg/injection, schedule: Q01DX009 (ip), vehicle: saline with Tween-80 100 % of control | [7] 91 % of control | [8] 90 % of control | [9] 88 % of control

CCc1cc(C2C(=O)c3ccccc3C2=O)cc(CC)c1O
inactive: [10] 107 % of control | [11] 105 % of control | [12] 110 % of control

CCCCCC(=O)C(C)(c1nc2nnc(NC(=O)Nc3ccc(Cl)cc3)n2[nH]c1=O)c1nc2nnc(NC(=O)Nc3ccc(Cl)cc3)n2[nH]c1=O
inactive: [4] 103 % of control | [5] 98 % of control | [6] 97 % of control

COc1cc(C2SCC(=O)N2c2nnc(C(F)(F)F)s2)cc(OC)c1OC (stereo not drawn)
inactive: [4] 98 % of control | [5] 88 % of control

Cc1c(O)c(O)c2c(c1O)N=C(Cl)/C2=C\N=NC(N)=S
inactive: dose: 100.0 mg/kg/injection, schedule: Q01DX001 (ip), vehicle: Klucel (hydroxypropylcellulose) (HPC) 99 % of control | dose: 200.0 mg/kg/injection, schedule: Q01DX001 (ip), vehicle: Klucel (hydroxypropylcellulose) (HPC) 95 % of control | dose: 400.0 mg/kg/injection, schedule: Q01DX001 (ip), vehicle: Klucel (hydroxypropylcellulose) (HPC) 106 % of control

NC(CS(=O)(=O)NO)C(=O)O (stereo not drawn)
inactive: dose: 60.0 mg/kg/injection, schedule: Q01DX009 (ip), vehicle: saline with Tween-80 97 % of control | dose: 120.0 mg/kg/injection, schedule: Q01DX009 (ip), vehicle: saline with Tween-80 113 % of control | dose: 240.0 mg/kg/injection, schedule: Q01DX009 (ip), vehicle: saline with Tween-80 119 % of control

CC(=O)OC(C)C[N+](C)(C)C (stereo not drawn)
inactive: [10] 102 % of control | [11] 102 % of control | [12] 94 % of control

CN(CCOC(N)=O)CCOC(N)=O
inactive: [4] 92 % of control | [5] 97 % of control | [6] 95 % of control

CC(C)C(NC(=O)[C@@H](C(C)C)N1C(=O)c2ccccc2C1=O)C(=O)O (stereo partly drawn)
inactive: dose: 12.5 mg/kg/injection, schedule: Q01DX005 (ip), vehicle: saline with Tween-80 101 % of control | dose: 25.0 mg/kg/injection, schedule: Q01DX005 (ip), vehicle: saline with Tween-80 101 % of control | [13] 99 % of control and 88 % of control | [14] 100 % of control

COC1/C=C\C=C(/C)C(=O)NC2=CC(=O)C(N)=C(CC(C)CC(OC)C(O)C(C)C=C(C)C1OC(N)=O)C2=O (stereo not drawn)
inactive: dose: 0.75 mg/kg/injection, schedule: Q01DX009 (ip), vehicle: saline with Tween-80 103 % of control | dose: 1.5 mg/kg/injection, schedule: Q01DX009 (ip), vehicle: saline with Tween-80 105 % of control | dose: 3.0 mg/kg/injection, schedule: Q01DX009 (ip), vehicle: saline with Tween-80 111 % of control | dose: 6.0 mg/kg/injection, schedule: Q01DX009 (ip), vehicle: saline with Tween-80 87 % of control

COc1ccc(NS(=O)(=O)c2ccc(NC3OC(CO)C(O)C(O)C3NC(C)=O)cc2)nn1 (stereo not drawn)
inactive: dose: 50.0 mg/kg/injection, schedule: Q01DX005 (ip), vehicle: saline 104 % of control | dose: 100.0 mg/kg/injection, schedule: Q01DX005 (ip), vehicle: saline 100 % of control | dose: 200.0 mg/kg/injection, schedule: Q01DX005 (ip), vehicle: saline 104 % of control

CCN(CC)CCNc1ccc([N+](=O)[O-])cc1[N+](=O)[O-]
inactive: dose: 6.25 mg/kg/injection, schedule: Q01DX009 (ip), vehicle: Klucel (hydroxypropylcellulose) (HPC) 93 % of control | [1] 105 % of control | [2] 114 % of control | [3] 99 % of control

COc1ccc(NC(=S)NC2C(OC(C)=O)OC(COC(C)=O)C(OC(C)=O)C2OC(C)=O)cc1 (stereo not drawn)
inactive: [13] 92 % of control | [15] 92 % of control | [14] 89 % of control

O=C(Nc1ccc(CCc2ccc(NC(=O)C34CC5CC(CC(C5)C3)C4)cc2)cc1)C12CC3CC(CC(C3)C1)C2
inactive: [13] 96 % of control | [15] 90 % of control

O=CNc1ccc2c(c1)Cc1cc(Br)ccc1-2
inactive: [7] 93 % of control | [8] 98 % of control | [9] 93 % of control | dose: 200.0 mg/kg/injection, schedule: Q01DX009 (ip), vehicle: saline with Tween-80 88 % of control
